Where “and” joins values, the source holds several entries; their conditions need not be identical. Identical values can stand only once. ± gives the uncertainty stated by the source.
Assay: xn = mol fraction of the nth substance listed

C[Si]1(C)O[Si](C)(C)O[Si](C)(C)O[Si](C)(C)O1 + ClC(Cl)(Cl)Cl
101 kPa
Settings	viscosity [mPa·s]
298.15 K, x1 = 0.1089	1.044 ± 0.011
298.15 K, x1 = 0.1965	1.14 ± 0.013
298.15 K, x1 = 0.289	1.245 ± 0.016
298.15 K, x1 = 0.4288	1.407 ± 0.022
298.15 K, x1 = 0.5841	1.595 ± 0.029
298.15 K, x1 = 0.659	1.694 ± 0.033
298.15 K, x1 = 0.8443	1.95 ± 0.045
298.15 K, x1 = 0.9264	2.073 ± 0.051
298.15 K, x1 = 0.9773	2.147 ± 0.055
308.15 K, x1 = 0.1756	0.964 ± 0.012
308.15 K, x1 = 0.3239	1.101 ± 0.016
308.15 K, x1 = 0.5732	1.339 ± 0.025
308.15 K, x1 = 0.729	1.493 ± 0.032
308.15 K, x1 = 0.8636	1.646 ± 0.039
308.15 K, x2 = 0.0183	1.786 ± 0.047
318.15 K, x1 = 0.1779	0.844 ± 0.01
318.15 K, x1 = 0.3249	0.956 ± 0.014
318.15 K, x1 = 0.5816	1.148 ± 0.022
318.15 K, x1 = 0.7307	1.27 ± 0.027
318.15 K, x1 = 0.8652	1.388 ± 0.033
318.15 K, x2 = 0.0179	1.498 ± 0.039

ClCCl + ClC(Cl)(Cl)Cl
Settings	viscosity [mPa·s]
303.15 K, 101.3 kPa, x2 = 0.506	0.5396 ± 0.0046

CC(=O)O + ClC(Cl)Cl
Settings	viscosity [mPa·s]
298.15 K, 101.33 kPa, x2 = 0.0468	1.087 ± 0.01
298.15 K, 101.33 kPa, x2 = 0.1013	0.997 ± 0.009
298.15 K, 101.33 kPa, x2 = 0.1021	1.022 ± 0.01
298.15 K, 101.33 kPa, x2 = 0.1487	0.954 ± 0.009
298.15 K, 101.33 kPa, x2 = 0.203	0.925 ± 0.009
298.15 K, 101.33 kPa, x2 = 0.2312	0.882 ± 0.008
298.15 K, 101.33 kPa, x2 = 0.2997	0.837 ± 0.008
298.15 K, 101.33 kPa, x2 = 0.3403	0.805 ± 0.008
298.15 K, 101.33 kPa, x2 = 0.4207	0.759 ± 0.007
298.15 K, 101.33 kPa, x2 = 0.4784	0.731 ± 0.007
298.15 K, 101.33 kPa, x2 = 0.5017	0.717 ± 0.007
298.15 K, 101.33 kPa, x2 = 0.5627	0.68 ± 0.007
298.15 K, 101.33 kPa, x2 = 0.6215	0.657 ± 0.007
298.15 K, 101.33 kPa, x2 = 0.7312	0.613 ± 0.006
298.15 K, 101.33 kPa, x2 = 0.8031	0.589 ± 0.006
298.15 K, 101.33 kPa, x2 = 0.8931	0.56 ± 0.006
303.15 K, 101 kPa, x2 = 0.0819	0.8986 ± 0.024
303.15 K, 101 kPa, x2 = 0.25	0.7244 ± 0.019
303.15 K, 101 kPa, x2 = 0.7464	0.5285 ± 0.014
313.15 K, 101 kPa, x2 = 0.0819	0.8287 ± 0.022
313.15 K, 101 kPa, x2 = 0.25	0.6532 ± 0.017
313.15 K, 101 kPa, x2 = 0.7464	0.484 ± 0.013
323.15 K, 101 kPa, x2 = 0.0819	0.7516 ± 0.02
323.15 K, 101 kPa, x2 = 0.25	0.5982 ± 0.016
323.15 K, 101 kPa, x2 = 0.7464	0.4537 ± 0.012

ClCCCl + ClC(Cl)Cl
303.15 K, 101.3 kPa
Settings	viscosity [mPa·s]
x1 = 0.0711	0.524 ± 0.0045
x1 = 0.1645	0.5402 ± 0.0046
x1 = 0.216	0.5493 ± 0.0046
x1 = 0.3322	0.5723 ± 0.0048
x1 = 0.4444	0.5947 ± 0.005
x1 = 0.5227	0.6115 ± 0.0051
x1 = 0.6269	0.6349 ± 0.0053
x1 = 0.7591	0.6659 ± 0.0055
x1 = 0.7901	0.6733 ± 0.0056
x1 = 0.8637	0.692 ± 0.0057
x1 = 0.935	0.7102 ± 0.0058

ClCCl + ClC(Cl)Cl
Settings	viscosity [mPa·s]
303.15 K, 101.3 kPa, x1 = 0.4966	0.4521 ± 0.0039

ClCCl + ClCCCl
303.15 K, 101.3 kPa
Settings	viscosity [mPa·s]
x2 = 0.0618	0.408 ± 0.0036
x2 = 0.1258	0.4242 ± 0.0037
x2 = 0.2132	0.4486 ± 0.0039
x2 = 0.3029	0.474 ± 0.0041
x2 = 0.419	0.5092 ± 0.0044
x2 = 0.5226	0.5436 ± 0.0046
x2 = 0.6033	0.5714 ± 0.0048
x2 = 0.7998	0.6445 ± 0.0053
x2 = 0.8933	0.6822 ± 0.0056
x2 = 0.9517	0.7068 ± 0.0058

CCNc1ccccc1 + Clc1ccccc1
viscosity [mPa·s], 101 kPa
Settings	303.15 K	308.15 K
x1 = 0.0629	0.767 ± 0.011	0.72 ± 0.011
x1 = 0.1159	0.816 ± 0.012	0.758 ± 0.011
x1 = 0.1959	0.894 ± 0.012	0.823 ± 0.012
x1 = 0.2558	0.954 ± 0.012	0.873 ± 0.012
x1 = 0.3298	1.028 ± 0.012	0.937 ± 0.012
x1 = 0.3968	1.096 ± 0.013	0.995 ± 0.012
x1 = 0.4856	1.188 ± 0.013	1.073 ± 0.013
x1 = 0.5625	1.267 ± 0.014	1.141 ± 0.013
x1 = 0.6359	1.342 ± 0.014	1.206 ± 0.014
x1 = 0.7025	1.412 ± 0.014	1.266 ± 0.014
x1 = 0.7839	1.499 ± 0.015	1.34 ± 0.014
x1 = 0.8592	1.581 ± 0.015	1.411 ± 0.015
x1 = 0.9215	1.65 ± 0.016	1.473 ± 0.015

C1CCC2=[NH+]CCCN2CC1.c1c[n-]cn1 + O
Settings	viscosity [mPa·s]
298.15 K, 100 kPa, x1 = 0.2994	42.65 ± 0.97

CCOC(N)=O + O
viscosity [mPa·s], 101.33 kPa
Settings	x1 = 0.01112	x1 = 0.02393	x1 = 0.03411	x1 = 0.0497	x1 = 0.06189	x1 = 0.07566	x1 = 0.1253
293.15 K	1.122 ± 0.01	1.253 ± 0.011	1.356 ± 0.012	1.505 ± 0.014	1.618 ± 0.015	1.743 ± 0.016	2.156 ± 0.02
298.15 K	0.9919 ± 0.0094	1.102 ± 0.01	1.191 ± 0.011	1.314 ± 0.013	1.409 ± 0.014	1.513 ± 0.015	1.86 ± 0.019

C[C@H]1COc2c(N3CCN(C)CC3)c(F)cc3c(=O)c(C(=O)O)cn1c23 + O
viscosity [mPa·s], 100 kPa
Settings	293.15 K	298.15 K	303.15 K	308.15 K	313.15 K
x1 = 0.00015	1.009 ± 0.035	0.8934 ± 0.035	0.8026 ± 0.035	0.7256 ± 0.035	0.6575 ± 0.034
x1 = 0.000344	1.016 ± 0.035	0.889 ± 0.035	0.8085 ± 0.035	0.7296 ± 0.035	0.6617 ± 0.034
x1 = 0.000425	1.019 ± 0.035	0.9064 ± 0.035	0.8134 ± 0.035	0.7336 ± 0.035	0.6673 ± 0.034

N=C(N)NCCC[C@H](N)C(=O)[O-].[Na+] + O
viscosity [mPa·s], 101 kPa
Settings	x1 = 0.004484	x1 = 0.008927	x1 = 0.01333	x1 = 0.0177	x1 = 0.02202	x1 = 0.02631
293.15 K	1.199 ± 0.012	1.453 ± 0.013	1.745 ± 0.015	2.107 ± 0.017	2.501 ± 0.019	2.956 ± 0.022
303.15 K	0.963 ± 0.011	1.149 ± 0.012	1.361 ± 0.013	1.615 ± 0.014	1.907 ± 0.016	2.248 ± 0.018
313.15 K	0.78 ± 0.01	0.925 ± 0.011	1.087 ± 0.012	1.278 ± 0.013	1.493 ± 0.014	1.744 ± 0.015
323.15 K	0.645 ± 0.01	0.759 ± 0.01	0.881 ± 0.011	1.033 ± 0.012	1.201 ± 0.012	1.384 ± 0.013

NC(=O)CC[C@H](N)C(=O)O + O
viscosity, 101 kPa
Settings	x1 = 0.00045	x1 = 0.0009	x1 = 0.001	x1 = 0.00135	x1 = 0.001798	x1 = 0.002247	x1 = 0.002695	x1 = 0.003
298.15 K	0.897 ± 0.021 mPa·s	–	–	0.909 ± 0.021 mPa·s	0.915 ± 0.021 mPa·s	–	0.9269 ± 0.021 mPa·s	0.9238 ± 0.019 mPa·s and 0.9238 ± 0.02 mPa·s
303.15 K	0.8032 ± 0.018 mPa·s	–	0.812 ± 0.017 mPa·s	0.8135 ± 0.019 mPa·s	0.8186 ± 0.019 mPa·s	0.8237 ± 0.019 mPa·s	0.8288 ± 0.019 mPa·s	0.8262 ± 0.017 mPa·s and 0.8262 ± 0.018 mPa·s
308.15 K	–	0.7288 ± 0.017 mPa·s	0.7318 ± 0.015 mPa·s and 0.7318 ± 0.016 mPa·s	–	–	–	0.7464 ± 0.017 mPa·s	0.7442 ± 0.016 mPa·s
313.15 K	–	0.6613 ± 0.015 mPa·s	–	0.6651 ± 0.015 mPa·s	0.6689 ± 0.015 mPa·s	0.6727 ± 0.015 mPa·s	0.6765 ± 0.016 mPa·s	0.6746 ± 0.014 mPa·s
318.15 K	0.6013 ± 0.014 mPa·s	0.6048 ± 0.014 mPa·s	0.6071 ± 0.013 mPa·s	0.6082 ± 0.014 mPa·s	0.6115 ± 0.014 mPa·s	0.6148 ± 0.014 mPa·s	0.6181 ± 0.014 mPa·s	0.6166 ± 0.013 mPa·s

O=C[C@H](O)[C@@H](O)[C@@H](O)[C@H](O)CO + O
viscosity
Settings	298.15 K	308.15 K
101 kPa, x1 = 0.0002	0.9056 ± 0.091 mPa·s and 0.9056 mPa·s	–
101 kPa, x1 = 0.001	0.9592 ± 0.096 mPa·s and 0.9592 mPa·s	–
101 kPa, x1 = 0.0018	0.9761 ± 0.098 mPa·s and 0.9761 mPa·s	–
101 kPa, x1 = 0.002	0.9675 ± 0.097 mPa·s and 0.9675 mPa·s	–
101 kPa, x1 = 0.003502	0.971 ± 0.009 mPa·s	–
101 kPa, x1 = 0.00393	0.9552 ± 0.024 mPa·s	0.814 ± 0.021 mPa·s
101 kPa, x1 = 0.00634	1.043 ± 0.026 mPa·s	0.8355 ± 0.021 mPa·s
101 kPa, x1 = 0.01867	1.505 ± 0.017 mPa·s	–
101.3 kPa, x1 = 0.02116	1.511 ± 0.009 mPa·s	–

O=P([O-])(O)O.[K+] + O
viscosity [mPa·s], 101 kPa
Settings	x1 = 0.0018	x1 = 0.0054	x1 = 0.0089	x1 = 0.012	x1 = 0.016
298.15 K	0.9211 ± 0.0084	0.9772 ± 0.0089	1.037 ± 0.0095	1.11 ± 0.01	1.186 ± 0.011
303.15 K	0.8252 ± 0.0076	0.8757 ± 0.0081	0.9339 ± 0.0087	0.9884 ± 0.0093	1.062 ± 0.01
308.15 K	0.7468 ± 0.007	0.7881 ± 0.0074	0.837 ± 0.008	0.8844 ± 0.0085	0.9335 ± 0.0094

[Ce+3].[Cl-].[Cl-].[Cl-] + O
Settings	viscosity
298.15 K, 101.33 kPa, x1 = 0.06822	12.27 ± 0.48 mPa·s and 12.27 ± 0.77 mPa·s

— the CheMixHub viscosity set
